Test results: the NIST ThermoML archive (doi:10.1016/j.jct.2016.09.007)

Assay: xn = mol fraction of the nth substance listed
Conditions: 93.2 kPa, Liquid; for speed of sound: Frequency=3 MHz, Sing-around technique in a fixed-path interferometer; for mass density: Vibrating tube method

CCCC(=O)[O-].CCCC[NH3+] [n-butylammonium butanoate] + CCCCCO
Conditions | mass density, 293.15 K [kg/m3] | mass density, 298.15 K [kg/m3] | mass density, 303.15 K [kg/m3] | mass density, 308.15 K [kg/m3] | mass density, 313.15 K [kg/m3] | speed of sound, 293.15 K [m/s] | speed of sound, 298.15 K [m/s] | speed of sound, 303.15 K [m/s] | speed of sound, 308.15 K [m/s] | speed of sound, 313.15 K [m/s]
x1 = 0.0504 | 824.946 | 821.27 | 817.568 | 813.834 | 810.063 | 1301.5 | 1284.3 | 1267.3 | 1250.4 | 1233.7
x1 = 0.1004 | 834.049 | 830.391 | 826.701 | 822.985 | 819.232 | 1308.8 | 1291.6 | 1274.6 | 1257.6 | 1240.9
x1 = 0.1491 | 842.19 | 838.55 | 834.886 | 831.191 | 827.462 | 1315.5 | 1298.2 | 1281.2 | 1264.2 | 1247.4
x1 = 0.2025 | 850.502 | 846.885 | 843.247 | 839.579 | 835.881 | 1322.6 | 1305.3 | 1288.2 | 1271.2 | 1254.4
x1 = 0.2513 | 857.492 | 853.902 | 850.29 | 846.65 | 842.977 | 1328.8 | 1311.6 | 1294.5 | 1277.5 | 1260.7
x1 = 0.3007 | 864.133 | 860.568 | 856.983 | 853.372 | 849.736 | 1335 | 1317.8 | 1300.7 | 1283.7 | 1267
x1 = 0.3506 | 870.527 | 866.989 | 863.432 | 859.854 | 856.248 | 1341.3 | 1324.1 | 1307.1 | 1290.2 | 1273.4
x1 = 0.4003 | 876.48 | 872.967 | 869.437 | 865.888 | 862.315 | 1347.5 | 1330.3 | 1313.3 | 1296.4 | 1279.8
x1 = 0.4485 | 881.984 | 878.492 | 874.989 | 871.466 | 867.921 | 1353.3 | 1336.2 | 1319.2 | 1302.4 | 1285.7
x1 = 0.4981 | 887.228 | 883.761 | 880.283 | 876.786 | 873.27 | 1359.2 | 1342.1 | 1325.1 | 1308.3 | 1291.8
x1 = 0.549 | 892.419 | 888.971 | 885.516 | 882.044 | 878.557 | 1365.4 | 1348.2 | 1331.3 | 1314.5 | 1298
x1 = 0.5979 | 897.108 | 893.686 | 890.251 | 886.802 | 883.336 | 1371.3 | 1354.1 | 1337.1 | 1320.3 | 1303.8
x1 = 0.6483 | 901.8 | 898.401 | 894.993 | 891.566 | 888.123 | 1377.6 | 1360.3 | 1343.3 | 1326.5 | 1310
x1 = 0.6971 | 906.089 | 902.72 | 899.338 | 895.935 | 892.514 | 1383.8 | 1366.4 | 1349.3 | 1332.5 | 1315.9
x1 = 0.7444 | 910.065 | 906.721 | 903.359 | 899.982 | 896.583 | 1389.8 | 1372.2 | 1355 | 1338.1 | 1321.6
x1 = 0.7997 | 914.585 | 911.263 | 907.929 | 904.583 | 901.213 | 1397.4 | 1379.5 | 1362 | 1345 | 1328.3
x1 = 0.8466 | 918.226 | 914.903 | 911.586 | 908.265 | 904.921 | 1404.4 | 1386 | 1368.2 | 1350.9 | 1334.1
x1 = 0.901 | 922.256 | 918.92 | 915.606 | 912.298 | 908.979 | 1413 | 1394 | 1375.7 | 1358 | 1341
x1 = 0.9495 | 925.7 | 922.407 | 919.075 | 915.767 | 912.465 | 1421.1 | 1401.3 | 1382.5 | 1364.4 | 1347
x1 = 1 | 928.794 | 925.509 | 922.217 | 918.88 | 915.567 | 1431.5 | 1410.3 | 1390.4 | 1371.5 | 1353.6
